According to patent US9730937B2, “RAF kinase modulator compounds and methods of use thereof” (AMBIT BIOSCIENCES CORPORATION, priority 2008, dated 2017):
Like-named read-outs stand apart in the source and are kept apart here.

Test system: panel of 290 distinct kinases (321 in the larger panel), excluding mutant variants
[1] = kinase selectivity score, value marked * (larger kinase panel), class symbols
[2] = kinase selectivity score, 290 distinct kinases, class symbols
[3] = asterisk: panel of 321 distinct kinases

Description: The liganded beads were blocked with excess biotin and washed with blocking buffer (SeaBlock (Pierce), 1% BSA, 0.05% Tween 20, 1 mM DTT) to remove unbound ligand and to reduce non-specific binding. […] Test compounds were prepared as 100× stocks in DMSO and rapidly diluted into the aqueous environment. DMSO was added to control assays lacking a test compound. Primary screen interactions were performed in polypropylene 384-well plates in a final volume of 34 μL, while Kd determinations were performed in polystyrene 96-well plates in a final volume of 135 μL. […] The kinase concentration in the eluates was measured by quantitative PCR. Each kinase was tested individually against each compound. KdS were determined using eleven serial threefold dilutions. A selectivity score, which is a quantitative measure of selectivity of a compound against a panel of enzymes, may be calculated for a compound by dividing the number of enzymes for which a compound meets a set criteria, (for example, a binding constant of 100 nM or less), by the total number of enzymes tested. […] (Note, for those compounds tested in a larger kinase panel, as indicated by an asterisk (*) next to the S35 score, the divisor is 321 (i.e. the larger panel contains 321 distinct kinases, excluding mutant variants.)).

Structure (SMILES) | S35 [3] | further results
COc1cc2ncnc(Oc3cccc(NC(=O)Nc4cc(C(C)(C)F)no4)c3)c2cc1OCCCS(C)(=O)=O [Ex 42, 1-(3-(2-fluoropropan-2-yl)isoxazol-5-yl)-3-(3-(7-methoxy-6-(3-(methylsulfonyl)propoxy)quinazolin-4-yloxy)phenyl)urea] | – | S35 [1]: C* (0.20 < C ≦ 0.40)
CCOc1cc2ncnc(Sc3cccc(NC(=O)Nc4cc(C(C)(C)C)on4)c3)c2cc1OC [Ex 50, 1-(5-tert-butylisoxazol-3-yl)-3-[3-(7-ethoxy-6-methoxyquinazolin-4-ylthio)phenyl]urea] | – | S35 [2]: B (0.10 < B ≦ 0.20)
COc1cc(NC(=O)Nc2cccc(Sc3ncnc4cc(OC)c(OC)cc34)c2)cc(C(F)(F)F)c1 [Ex 115, 1-(3-(6,7-dimethoxyquinazolin-4-ylthio)phenyl)-3-(3-methoxy-5-(trifluoromethyl)phenyl)urea] | – | S35 [2]: C (0.20 < C ≦ 0.40)
COc1cc(NC(=O)Nc2cccc(Oc3ncnc4cc(OC)c(OC)cc34)c2)cc(C(F)(F)F)c1 [Ex 116, 1-(3-(6,7-dimethoxyquinazolin-4-yloxy)phenyl)-3-(3-methoxy-5-(trifluoromethyl)phenyl)urea] | – | S35 [2]: B (0.10 < B ≦ 0.20)
COCCOc1cc(NC(=O)Nc2cccc(Oc3ncnc4cc(OCCOC)c(OC)cc34)c2)cc(C(F)(F)F)c1 [Ex 117, 1-(3-(6-methoxy-7-(2-methoxyethoxy)quinazolin-4-yloxy)phenyl)-3-(3-(2-methoxyethoxy)-5-(trifluoromethyl)phenyl)urea] | – | S35 [2]: C (0.20 < C ≦ 0.40)
COc1cc2ncnc(Oc3cccc(NC(=O)Nc4cc(C(C)(C)C#N)no4)c3)c2cc1OC [Ex 125, 1-(3-(2-cyanopropan-2-yl)isoxazol-5-yl)-3-(3-(6,7-dimethoxyquinazolin-4-yloxy)phenyl)urea] | – | S35 [1]: C* (0.20 < C ≦ 0.40)
COc1cc2ncnc(Oc3cccc(NC(=O)Nc4cc(C(C)(C)F)no4)c3)c2cc1OC [Ex 126, 1-(3-(6,7-dimethoxyquinazolin-4-yloxy)phenyl)-3-(3-(2-fluoropropan-2-yl)isoxazol-5-yl)urea] | – | S35 [2]: C (0.20 < C ≦ 0.40)
COc1cc2ncnc(Oc3cccc(NC(=O)Nc4cc(C5(C(F)(F)F)CC5)nn4-c4ccccc4)c3)c2cc1OC [Ex 137, 1-(3-(6,7-dimethoxyquinazolin-4-yloxy)phenyl)-3-(1-phenyl-3-(1-(trifluoromethyl)cyclopropyl)-1H-pyrazol-5-yl)urea] | – | S35 [1]: D* (D > 0.40)
COc1cc2ncnc(Oc3cccc(NC(=O)Nc4ccc(C(F)(F)F)c(F)c4)c3)c2cc1OC [Ex 150, 1-(3-(6,7-dimethoxyquinazolin-4-yloxy)phenyl)-3-(3-fluoro-4-(trifluoromethyl)phenyl)urea] | – | S35 [1]: C* (0.20 < C ≦ 0.40)
COc1cc2ncnc(Oc3cccc(NC(=O)Nc4cc(C(C)(CF)CF)no4)c3)c2cc1OC [Ex 159, 1-[3-(1,3-difluoro-2-methylpropan-2-yl)isoxazol-5-yl]-3-[3-(6,7-dimethoxyquinazolin-4-yloxy]phenyl)urea] | – | S35 [1]: D* (D > 0.40)
COc1cc2ncnc(Sc3cccc(NC(=O)Nc4ccc(C(F)(F)F)cc4)c3)c2cc1OC [Ex 184, 1-(3-(6,7-dimethoxyquinazolin-4-ylthio)phenyl)-3-(4-(trifluoromethyl)phenyl)urea] | – | S35 [1]: C* (0.20 < C ≦ 0.40)
COCCOc1cc2ncnc(Oc3cccc(NC(=O)Nc4cc(-c5ccccc5)on4)c3)c2cc1OC [Ex 203, 1-(3-(6-methoxy-7-(2-methoxyethoxy)quinazolin-4-yloxy)phenyl)-3-(5-phenylisoxazol-3-yl)urea] | – | S35 [2]: B (0.10 < B ≦ 0.20)
COCCOc1cc2ncnc(Oc3cccc(NC(=O)Nc4cc(C(C)C)on4)c3)c2cc1OC [Ex 206, 1-(5-isopropylisoxazol-3-yl)-3-(3-(6-methoxy-7-(2-methoxyethoxy)quinazolin-4-yloxy)phenyl)urea] | C* (0.20 < C ≦ 0.40) | –
COCCOc1cc2ncnc(Oc3cccc(NC(=O)Nc4cc(C5CCCC5)no4)c3)c2cc1OC [Ex 207, 1-(3-cyclopentylisoxazol-5-yl)-3-(3-(6-methoxy-7-(2-methoxyethoxy)quinazolin-4-yloxy)phenyl)urea] | C* (0.20 < C ≦ 0.40) | –
COCCOc1cc2ncnc(Oc3cccc(NC(=O)Nc4cc(C(F)(F)F)n(C)n4)c3)c2cc1OC [Ex 208, 1-{3-[6-methoxy-7-(2-methoxyethoxy)quinazolin-4-yloxy]phenyl}-3-[1-methyl-5-(trifluoromethyl)-1H-pyrazol-3-yl]urea] | C* (0.20 < C ≦ 0.40) | –
COCCOc1cc2ncnc(Oc3cccc(NC(=O)Nc4cc(C(C)(C)C)nn4C)c3)c2cc1OC [Ex 209, 1-(3-tert-butyl-1-methyl-1H-pyrazol-5-yl)-3-(3-(6-methoxy-7-(2-methoxyethoxy)quinazolin-4-yloxy)phenyl)urea] | C* (0.20 < C ≦ 0.40) | –
COCCOc1cc2ncnc(Oc3cccc(NC(=O)Nc4cc(C(C)(C)C)nn4-c4ccccc4)c3)c2cc1OC [Ex 210, 1-(3-tert-butyl-1-phenyl-1H-pyrazol-5-yl)-3-(3-(6-methoxy-7-(2-methoxyethoxy)quinazolin-4-yloxy)phenyl)urea] | D* (D > 0.40) | –
COCCOc1cc2ncnc(Oc3cccc(NC(=O)Nc4cc(C(C)(F)F)no4)c3)c2cc1OC [Ex 211, 1-(3-(1,1-difluoroethyl)isoxazol-5-yl)-3-(3-(6-methoxy-7-(2-methoxyethoxy)quinazolin-4-yloxy)phenyl)urea] | C* (0.20 < C ≦ 0.40) | –
COCCOc1cc2ncnc(Oc3cccc(NC(=O)Nc4cc(C(C)(CF)CF)on4)c3)c2cc1OC [Ex 213, 1-[5-(1,3-difluoro-2-methylpropan-2-yl)isoxazol-3-yl]-3-{3-[6-methoxy-7-(2-methoxyethoxy)quinazolin-4-yloxy]phenyl}urea] | D* (D > 0.40) | –
COCCOc1cc2ncnc(Oc3cccc(NC(=O)Nc4cc(C5CC5)no4)c3)c2cc1OC [Ex 214, 1-(3-cyclopropylisoxazol-5-yl)-3-(3-(6-methoxy-7-(2-methoxyethoxy)quinazolin-4-yloxy)phenyl)urea] | C* (0.20 < C ≦ 0.40) | –
COCCOc1cc2ncnc(Oc3cccc(NC(=O)Nc4cc(C(C)C)no4)c3)c2cc1OC [Ex 215, 1-(3-isopropylisoxazol-5-yl)-3-(3-(6-methoxy-7-(2-methoxyethoxy)quinazolin-4-yloxy)phenyl)urea] | C* (0.20 < C ≦ 0.40) | –
COCCOc1cc2ncnc(Oc3cccc(NC(=O)Nc4cc(C5CCOCC5)no4)c3)c2cc1OC [Ex 216, 1-(3-(6-methoxy-7-(2-methoxyethoxy)quinazolin-4-yloxy)phenyl)-3-(3-(tetrahydro-2H-pyran-4-yl)isoxazol-5-yl)urea] | B* (0.10 < B ≦ 0.20) | –
COCCOc1cc2ncnc(Oc3cccc(NC(=O)Nc4cc(C(C)(C)COC)on4)c3)c2cc1OC [Ex 217, 1-(5-(1-methoxy-2-methylpropan-2-yl)isoxazol-3-yl)-3-(3-(6-methoxy-7-(2-methoxyethoxy)quinazolin-4-yloxy)phenyl)urea] | C* (0.20 < C ≦ 0.40) | –
COCCOc1cc2ncnc(Oc3cccc(NC(=O)Nc4cc(C(C)(C)F)no4)c3)c2cc1OC [Ex 218, 1-(3-(2-fluoropropan-2-yl)isoxazol-5-yl)-3-(3-(6-methoxy-7-(2-methoxyethoxy)quinazolin-4-yloxy)phenyl)urea] | C* (0.20 < C ≦ 0.40) | –
COCCOc1cc2ncnc(Oc3cccc(NC(=O)Nc4cc(C5CCCC5)on4)c3)c2cc1OC [Ex 219, 1-(5-cyclopentylisoxazol-3-yl)-3-(3-(6-methoxy-7-(2-methoxyethoxy)quinazolin-4-yloxy)phenyl)urea] | C* (0.20 < C ≦ 0.40) | –
